Our source for the IC50 values is US20250215029A1 (Recludix Pharma, Inc., priority 2022, published 2025).

Where two headings read alike, the source gives them in different places.

For one assay, the target named is T1, pY705-STAT3 in PBMC (Homo sapiens, UniProt P40763).
T1 construct: Cryopreserved Peripheral Blood Mononuclear Cells (PBMC) are from AllCells; host or cells: cryopreserved PBMC
In words: MSD-pSTAT-PBMC Assay (pSTAT3, IL-6 stimulated). The format is cell-based. The conditions noted are these: PBMC, compound 3 hrs, then 10 ng/mL IL-6 for 10 min; Table 1114; read-out: pSTAT3. The essentials: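 Cells are preincubated with compound for 3 hrs, then stimulated for 10 min, IL-4 at 1 ng/mL driving STAT6 phosphorylation and IL-6 at 10 ng/mL driving STAT3. Phospho-STAT in lysates is quantified by MSD immunoassay, and IC50 is fitted after subtracting unstimulated wells.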

The target of another assay is T2, pY641-STAT6 in PBMC (Homo sapiens, UniProt P42226).
T2 construct: Cryopreserved Peripheral Blood Mononuclear Cells (PBMC) are from AllCells; host or cells: cryopreserved PBMC
T2 sequence (P42226 1-847): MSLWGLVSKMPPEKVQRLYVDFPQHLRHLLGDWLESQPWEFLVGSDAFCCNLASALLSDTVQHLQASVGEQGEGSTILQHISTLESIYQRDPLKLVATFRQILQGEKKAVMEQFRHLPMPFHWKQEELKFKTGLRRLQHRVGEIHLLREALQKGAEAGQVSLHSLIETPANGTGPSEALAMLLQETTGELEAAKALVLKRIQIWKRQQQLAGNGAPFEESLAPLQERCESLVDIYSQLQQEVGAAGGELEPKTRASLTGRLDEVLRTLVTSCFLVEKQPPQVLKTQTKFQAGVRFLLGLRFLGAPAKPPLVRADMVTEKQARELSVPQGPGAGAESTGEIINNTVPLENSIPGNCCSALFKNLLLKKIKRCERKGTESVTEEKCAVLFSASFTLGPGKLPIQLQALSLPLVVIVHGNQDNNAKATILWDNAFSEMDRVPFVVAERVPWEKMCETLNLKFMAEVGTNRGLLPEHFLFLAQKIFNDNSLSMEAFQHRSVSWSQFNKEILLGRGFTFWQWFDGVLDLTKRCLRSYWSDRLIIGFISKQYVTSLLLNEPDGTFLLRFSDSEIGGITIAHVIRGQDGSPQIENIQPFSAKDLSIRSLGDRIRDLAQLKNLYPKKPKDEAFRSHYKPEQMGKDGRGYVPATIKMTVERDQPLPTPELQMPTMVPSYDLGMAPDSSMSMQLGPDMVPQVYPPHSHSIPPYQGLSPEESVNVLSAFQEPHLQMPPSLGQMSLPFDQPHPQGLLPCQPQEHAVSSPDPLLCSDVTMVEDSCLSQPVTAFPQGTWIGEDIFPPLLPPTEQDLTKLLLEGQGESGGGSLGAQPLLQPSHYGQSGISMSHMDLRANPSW
Kind of assay: MSD-pSTAT-PBMC Assay (pSTAT6, IL-4 stimulated). The format is cell-based. The note with it: compound 3 hrs, then 1 ng/mL IL-4 for 10 min, Table 1114. In outline: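 Inhibition of cytokine-induced STAT phosphorylation was measured in recovered human PBMC after 3 hrs compound exposure and a 10 min IL-4 (1 ng/mL) or IL-6 (10 ng/mL) challenge. MSD detection of pY641-STAT6 or pY705-STAT3 yielded IC50 values.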

T1 sequence (P40763 whole entry): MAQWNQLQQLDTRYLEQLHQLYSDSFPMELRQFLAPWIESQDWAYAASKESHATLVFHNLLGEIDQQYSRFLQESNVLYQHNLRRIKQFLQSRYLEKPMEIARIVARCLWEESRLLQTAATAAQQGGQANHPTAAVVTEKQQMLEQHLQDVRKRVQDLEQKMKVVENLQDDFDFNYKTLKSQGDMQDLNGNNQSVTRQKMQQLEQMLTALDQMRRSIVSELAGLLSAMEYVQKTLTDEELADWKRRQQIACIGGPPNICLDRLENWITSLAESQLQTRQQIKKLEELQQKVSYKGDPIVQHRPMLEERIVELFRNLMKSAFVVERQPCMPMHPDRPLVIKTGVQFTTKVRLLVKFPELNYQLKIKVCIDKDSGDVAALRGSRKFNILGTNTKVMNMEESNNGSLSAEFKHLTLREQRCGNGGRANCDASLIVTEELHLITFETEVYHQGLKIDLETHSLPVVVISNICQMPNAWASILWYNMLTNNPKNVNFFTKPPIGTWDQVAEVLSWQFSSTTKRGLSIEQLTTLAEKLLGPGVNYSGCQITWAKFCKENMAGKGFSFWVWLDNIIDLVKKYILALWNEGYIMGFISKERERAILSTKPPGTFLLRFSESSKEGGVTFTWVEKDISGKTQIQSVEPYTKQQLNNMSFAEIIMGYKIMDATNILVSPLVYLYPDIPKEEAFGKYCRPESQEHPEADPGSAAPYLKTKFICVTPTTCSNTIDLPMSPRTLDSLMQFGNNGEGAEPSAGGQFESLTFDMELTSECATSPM

Take `CC(C)OC(=O)OCOP(=O)(OCOC(=O)OC(C)C)[C@H](F)c1ccc2sc(C(=O)N[C@H]3CCCC[C@H]4CC[C@@H](C(=O)N5C[C@H](c6cc[nH]c(=O)c6)[C@@H](C#N)C5)N4C3=O)cc2c1` (single isomer, unassigned) [Compound 164]: the IC50 at pY705-STAT3 in PBMC was 100 to 1000 nM; at pY641-STAT6 in PBMC (PBMC, read-out: pSTAT6), 100 to 1000 nM.
`CC(C)CC(=O)SCCOP(=O)(OCOC(=O)OC(C)C)C(F)(F)c1ccc2sc(C(=O)N[C@H]3CCCC[C@H]4CC[C@@H](C(=O)N5C[C@H](c6ccccc6)[C@@H](C#N)C5)N4C3=O)cc2c1` (single isomer, unassigned) [Compound 166, S-(2-((((2-(((3S,6S,10aS)-3-((3R,4S or 3S,4R)-3-cyano-4-phenylpyrrolidine-1-carbonyl)-5-oxodecahydropyrrolo [1,2-a]azocin-6-yl)carbamoyl)benzo[b]thiophen-5-yl)difluoromethyl) (((isopropoxycarbonyl)oxy)methoxy)phosphoryl)oxy)ethyl)-3-methylbutane thioate]: the IC50 is 100 to 1000 nM on pY705-STAT3 in PBMC and less than 100 nM at pY641-STAT6 in PBMC (PBMC, read-out: pSTAT6).
Take `CC(C)CC(=O)SCCOP(=O)(OCCSC(=O)CC(C)C)C(F)(F)c1ccc2ccc(C(=O)N[C@H]3CCCCC[C@H]4[C@H](O)C[C@@H](C(=O)N5CC(C#N)C(c6cc[nH]c(=O)c6)C5)N4C3=O)cc2c1` (single isomer, unassigned) [Compound 167, S,S′-(((((7-(((1R,3S,6S,11aS)-3-((3S,4R or 3R,4S)-3-cyano-4-(2-oxo-1,2-dihydropyridin-4-yl)pyrrolidine-1-carbonyl)-1-hydroxy-5-oxodecahydropyrrolo [1,2-a]azocin-6-yl)carbamoyl)naphthalen-2-yl)difluoromethyl)phosphoryl)bis(oxy))bis(ethane-2,1-diyl)) bis(3-methylbutane thioate)]: the IC50 on pY705-STAT3 in PBMC is greater than 3000 nM; at pY641-STAT6 in PBMC (PBMC, read-out: pSTAT6), 100 to 1000 nM.
In the case of `CC(C)CC(=O)SCCOP(=O)(OCCSC(=O)CC(C)C)C(F)(F)c1ccc2ccc(C(=O)N[C@H]3CCCC[C@H]4CC[C@@H](C(=O)N5C[C@@H](C#N)[C@H](c6cc[nH]c(=O)c6)C5)N4C3=O)cc2c1` (single isomer, unassigned) [Compound 168, S,S′-(((((7-(((3S,6S,10aS)-3-((3S,4R or 3R,4S)-3-cyano-4-(2-oxo-1,2-dihydropyridin-4-yl)pyrrolidine-1-carbonyl)-5-oxodecahydropyrrolo [1,2-a]azocin-6-yl)carbamoyl)naphthalen-2-yl)difluoromethyl)phosphoryl)bis(oxy))bis(ethane-2,1-diyl)) bis(3-methylbutane thioate)], the IC50 at pY705-STAT3 in PBMC was 100 to 1000 nM; on pY641-STAT6 in PBMC (PBMC, read-out: pSTAT6) it was less than 100 nM.
For the compound `CC(C)(C)C(=O)OCOP(=O)(OCOC(=O)C(C)(C)C)[C@@H](F)c1ccc2sc(C(=O)N[C@H]3CCCC[C@H]4CC[C@@H](C(=O)N5C[C@@H](C#N)[C@H](c6ccccc6)C5)N4C3=O)cc2c1` (single isomer, unassigned) [Compound 183, ((((R)- or (S)-(2-(((3S,6S,10aS)-3-((3S,4R or 3R,4S)-3-cyano-4-phenylpyrrolidine-1-carbonyl)-5-oxodecahydropyrrolo[1,2-a]azocin-6-yl)carbamoyl)benzo[b]thiophen-5-yl)fluoromethyl)phosphoryl)bis(oxy))bis(methylene)bis(2,2-dimethylpropanoate))], the IC50 was 100 to 1000 nM on pY705-STAT3 in PBMC and less than 100 nM on pY641-STAT6 in PBMC (PBMC, read-out: pSTAT6).
In the case of `CC(C)(C)C(=O)OCOP(=O)(OCOC(=O)C(C)(C)C)[C@@H](F)c1ccc2sc(C(=O)N[C@H]3CCCC[C@H]4CC[C@@H](C(=O)N5C[C@@H](C#N)[C@H](c6ccccc6)C5)N4C3=O)cc2c1` (single isomer, unassigned) [Compound 184, ((((S)- or (R)-(2-(((3S,6S, 10aS)-3-((3S,4R or 3R,4S)-3-cyano-4-phenyl-pyrrolidine-1-carbonyl)-5-oxodeca-hydropyrrolo [1,2-a]azocin-6-yl)carbamoyl)benzo[b]thiophen-5-yl)fluoromethyl)phosphoryl)bis(oxy)) bis(methylene) bis(2,2-dimethyl-propanoate)], the IC50 at pY705-STAT3 in PBMC was 100 to 1000 nM; at pY641-STAT6 in PBMC (PBMC, read-out: pSTAT6), less than 100 nM.
`CC(C)(C)C(=O)OCOP(=O)(OCOC(=O)C(C)(C)C)C(F)(F)c1ccc2sc(C(=O)N[C@H]3C[C@@H](O)CC[C@H]4CC[C@@H](C(=O)N5C[C@H](c6ccccc6)[C@@H](C#N)C5)N4C3=O)cc2c1` (single isomer, unassigned) [Compound 185, ((((2-(((3S,6S,8S, 10aR)-3-((3R,4S or 3S,4R)-3-cyano-4-phenyl-pyrrolidine-1-carbonyl)-8-hydroxy-5-oxodeca-hydropyrrolo [1,2-a]azocin-6-yl)carbamoyl)benzo[b]thiophen-5-yl)difluoro-methyl)phos-phoryl)bis(oxy)) bis(methylene) bis(2,2-dimethyl-propanoate)]: the IC50 at pY705-STAT3 in PBMC is 100 to 1000 nM; at pY641-STAT6 in PBMC (PBMC, read-out: pSTAT6), less than 100 nM.
Take `CC(C)(C)C(=O)OCOP(=O)(OCOC(=O)C(C)(C)C)C(F)(F)c1ccc2ccc(C(=O)N[C@H]3CCCC[C@H]4CC[C@@H](C(=O)N5C[C@@H](C#N)[C@]6(C5)C(=O)Nc5ccccc56)N4C3=O)cc2c1` (single isomer, unassigned) [Compound 193]: the IC50 on pY705-STAT3 in PBMC was less than 100 nM; on pY641-STAT6 in PBMC (PBMC, read-out: pSTAT6) it was less than 100 nM.
For the compound `CC(C)OC(=O)[C@H](C)NP(=O)(Cc1ccc2sc(C(=O)N[C@H]3CCCC[C@H]4CC[C@@H](C(=O)N5C[C@H](c6cc[nH]c(=O)c6)[C@@H](C#N)C5)N4C3=O)cc2c1)Oc1ccccc1` (single isomer, unassigned) [Compound 197, isopropyl (((2-(((3S,6S,10aS)-3-((3R,4S or 3S,4R)-3-cyano-4-(2-oxo-1,2-dihydro-pyridin-4-yl)pyrrolidine-1-carbonyl)-5-oxodecahydro-pyrrolo[1,2-a]azocin-6-yl)carbamoyl)benzo[b]thiophen-5-yl)methyl) (phenoxy)phosphoryl)-L-alaninate], the IC50 on pY705-STAT3 in PBMC was greater than 3000 nM; against pY641-STAT6 in PBMC (pSTAT6, PBMC), greater than 3000 nM.
For `CC(C)OC(=O)[C@H](C)NP(=O)(Oc1ccccc1)C(F)c1ccc2sc(C(=O)N[C@H]3CCCC[C@H]4CC[C@@H](C(=O)N5C[C@H](c6cc[nH]c(=O)c6)[C@@H](C#N)C5)N4C3=O)cc2c1` (single isomer, unassigned) [Compound 198, isopropyl (((2-(((3S,6S,10aS)-3-((3R,4S or 3S,4R)-3-cyano-4-(2-oxo-1,2-dihydropyridin-4-yl)pyrrolidine-1-carbonyl)-5-oxodecahydro-pyrrolo[1,2-a]azocin-6-yl)carbamoyl)benzo[b]thiophen-5-yl)fluoro-methyl) (phenoxy)phosphoryl)-L-alaninate], the IC50 is greater than 3000 nM at pY705-STAT3 in PBMC and greater than 3000 nM against pY641-STAT6 in PBMC (pSTAT6, PBMC).
Take `CC(C)(CO)C(=O)SCCOP(=O)(Cc1ccc2sc(C(=O)NC3CCCCC4CCC(C(=O)N5CC(C#N)C(c6ccccc6)C5)N4C3=O)cc2c1)OCCSC(=O)C(C)(C)CO` (single isomer, unassigned) [Compound 199, S,S′-(((((2-(((3S,6S,10aS)-3-((3S,4R or 3R,4S)-3-cyano-4-phenylpyrrolidine-1-carbonyl)-5-oxodecahydropyrrolo[1,2-a]azocin-6-yl)carbamoyl)benzo[b]thiophen-5-yl)methyl)phosphoryl)bis(oxy))bis(ethane-2,1-diyl))bis(3-hydroxy-2,2-dimethylpropanethioate)trifluoroacetate]: the IC50 is greater than 3000 nM on pY705-STAT3 in PBMC and greater than 3000 nM at pY641-STAT6 in PBMC (PBMC, read-out: pSTAT6).
